Experimental data: patent US20210403435A1, “HERBICIDAL COMPOUNDS” (SYNGENTA CROP PROTECTION AG, priority 2018, published 2021)

Assays:
Assay in all cases: Post-emergence efficacy, glasshouse, evaluated after 13 days
Assay type in all cases: in vivo
[1] = system: Amaranthus palmeri (AMAPA); settings: post-emergence application, 500 g/Ha, evaluated after 13 days; for pest or weed control at 500 g/ha: Amaranthus palmeri, 312 h, read-out: Control of weed species AMAPA (100=total damage to plant; 0=no damage to plant)
In short: (§1)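 Damage was rated visually 13 days after treatment on a 0–100 scale, where 100 meant total damage. Plants had been raised for 14 days in soil under glasshouse conditions (24/16 °C, 14 h light, 65% humidity) before spraying with an aqueous dilution of an IF50-based formulation.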

[2] = system: Chenopodium album (CHEAL); settings: post-emergence application, 500 g/Ha, evaluated after 13 days; for pest or weed control at 500 g/ha: Chenopodium album, 312 h, read-out: Control of weed species CHEAL (100=total damage to plant; 0=no damage to plant)
In short: as §1

[3] = system: Digitaria sanguinalis (DIGSA); settings: post-emergence application, 500 g/Ha, evaluated after 13 days; for pest or weed control at 500 g/ha: Digitaria sanguinalis, 312 h, read-out: Control of weed species DIGSA (100=total damage to plant; 0=no damage to plant)
In short: as §1

[4] = system: Echinochloa crus-galli (ECHCG); settings: post-emergence application, 500 g/Ha, evaluated after 13 days; for pest or weed control at 500 g/ha: Echinochloa crus-galli, 312 h, read-out: Control of weed species ECHCG (100=total damage to plant; 0=no damage to plant)
In short: as §1

Eleusine indica (ELEIN) = settings: post-emergence application, 500 g/Ha, evaluated after 13 days; for pest or weed control at 500 g/ha: Eleusine indica, 312 h, read-out: Control of weed species ELEIN (100=total damage to plant; 0=no damage to plant)
In short: as §1

[5] = system: Euphorbia heterophylla (EPHHL); settings: post-emergence application, 500 g/Ha, evaluated after 13 days; for pest or weed control at 500 g/ha: Euphorbia heterophylla, 312 h, read-out: Control of weed species EPHHL (100=total damage to plant; 0=no damage to plant)
In short: as §1

[6] = system: Ipomoea hederacea (IPOHE); settings: post-emergence application, 500 g/Ha, evaluated after 13 days; for pest or weed control at 500 g/ha: Ipomoea hederacea, 312 h, read-out: Control of weed species IPOHE (100=total damage to plant; 0=no damage to plant)
In short: as §1

Lolium perenne (LOLPE) = settings: post-emergence application, 500 g/Ha, evaluated after 13 days; for pest or weed control at 500 g/ha: Lolium perenne, 312 h, read-out: Control of weed species LOLPE (100=total damage to plant; 0=no damage to plant)
In short: as §1

Setaria faberi (SETFA) = settings: post-emergence application, 500 g/Ha, evaluated after 13 days; for pest or weed control at 500 g/ha: Setaria faberi, 312 h, read-out: Control of weed species SETFA (100=total damage to plant; 0=no damage to plant)
In short: as §1

Row | Compound | pest or weed control at 500 g/ha [1] [%] | pest or weed control at 500 g/ha [2] [%] | pest or weed control at 500 g/ha [3] [%] | pest or weed control at 500 g/ha [4] [%] | pest or weed control at 500 g/ha (Eleusine indica (ELEIN)) [%] | pest or weed control at 500 g/ha [5] [%] | pest or weed control at 500 g/ha [6] [%] | pest or weed control at 500 g/ha (Lolium perenne (LOLPE)) [%] | pest or weed control at 500 g/ha (Setaria faberi (SETFA)) [%] | Control of weed species AMAPA (100=total damage to plant; 0=no damage to plant) [1] | Control of weed species CHEAL (100=total damage to plant; 0=no damage to plant) [2] | Control of weed species DIGSA (100=total damage to plant; 0=no damage to plant) [3] | Control of weed species ECHCG (100=total damage to plant; 0=no damage to plant) [4] | Control of weed species ELEIN (100=total damage to plant; 0=no damage to plant) (Eleusine indica (ELEIN)) | Control of weed species EPHHL (100=total damage to plant; 0=no damage to plant) [5] | Control of weed species IPOHE (100=total damage to plant; 0=no damage to plant) [6] | Control of weed species LOLPE (100=total damage to plant; 0=no damage to plant) (Lolium perenne (LOLPE)) | Control of weed species SETFA (100=total damage to plant; 0=no damage to plant) (Setaria faberi (SETFA))
1 | CN(C)C(=O)c1cn[n+](CCS(=O)(=O)O)cc1-c1ccccc1 [Compound A64] | 100 | 30 | 40 | 50 | 40 | 40 | 30 | 20 | 30 |  |  |  |  |  |  |  |  | 
2 | CC(C)N(C(=O)c1cc[n+](CCS(=O)(=O)O)nc1)C(C)C [Compound A14] | 100 | 70 | 30 | 10 | 10 | 50 | 30 | 0 | 10 |  |  |  |  |  |  |  |  | 
3 | CN(CCS(C)(=O)=O)C(=O)c1cc[n+](CCC(=O)O)nc1 [Compound A135] | 80 | 60 | 90 | 60 | 40 | 80 | 30 | 70 | 100 |  |  |  |  |  |  |  |  | 
4 | C#CCNC(=O)c1cc[n+](CCNS(=O)(=O)[O-])nc1 [Compound A141] | 100 | 100 | 70 | 40 | 90 | 60 | 70 | 70 | 40 |  |  |  |  |  |  |  |  | 
5 | O=C(O)CC[n+]1ccc(C(=O)NC2CCCCC2)cn1 [Compound A59] | 70 | 50 | 60 | 20 | 20 | 10 | 20 | 20 | 30 |  |  |  |  |  |  |  |  | 
6 | O=C(O)CC[n+]1ccc(C(=O)NCc2ccc(F)cc2)cn1 [Compound A22] | 100 | 90 | 60 | 50 | 60 | 90 | 40 | 40 | 50 |  |  |  |  |  |  |  |  | 
7 | CCCNC(=O)c1cc[n+](CCC(=O)O)nc1 [Compound A46] | 50 | 70 | 90 | 80 | 10 | 100 | 40 | 20 | 100 |  |  |  |  |  |  |  |  | 
8 | CC(C)N(C)C(=O)c1cc[n+](CCC(=O)O)nc1 [Compound A34] | 100 | 40 | 70 | 30 | 20 | 70 | 20 | 30 | 70 |  |  |  |  |  |  |  |  | 
9 | COCCNC(=O)c1cc[n+](CCS(=O)(=O)[O-])nc1 [Compound A52] | 100 | 100 | 90 | 80 | 20 | 60 | 60 | 30 | 80 |  |  |  |  |  |  |  |  | 
10 | CN(C)C(=O)c1cc[n+](CCC(=O)O)nc1 [Compound A10] | 100 | 100 | 90 | 70 | 80 | 100 | 60 | 10 | 90 |  |  |  |  |  |  |  |  | 
11 | CCNC(=O)c1cc[n+](C(C)CC(=O)O)nc1 (stereo not drawn) [Compound A61] | 100 | 90 | 100 | 50 | 90 | 80 | 70 | 80 | 50 |  |  |  |  |  |  |  |  | 
12 | O=C(O)CC[n+]1ccc(C(=O)NC2CC2)cn1 [Compound A31] | 100 | 100 | 100 | 70 | 100 | 100 | 30 | 70 | 100 |  |  |  |  |  |  |  |  | 
13 | O=C(O)CC[n+]1ccc(C(=O)Nc2cnccn2)cn1 [Compound A124] | 20 | 30 | 70 | 60 | 30 | 30 | 20 | 10 | 70 |  |  |  |  |  |  |  |  | 
14 | CNC(=O)c1cc[n+](CC[C@H](N)C(=O)O)nc1.O=C(O)C(F)(F)F.O=C([O-])C(F)(F)F [Compound A12] |  |  |  |  |  |  |  |  |  | 90 | 60 | 90 | 80 | 60 | 70 | 40 | 40 | 60
